Laboratory results as given in US4127446A, “Process for producing antibiotics mimosamycin and chlorocarcins A, B and C” (priority 1975, dated 1978).
≈ marks a conversion by molar mass, not a printed value.

Tests used:
[1] = system: Mycobacterium bovis No. 10; test: microbe, parasite or virus in culture; assay type: cell-based; conditions: Mycobacterium tuberculosis variant bovis, NO.10, 672 h
gram-positive bacteria = test: Biological properties of mimosamycin: activity against gram-positive bacteria; assay type: cell-based
gram-negative bacteria = test: Biological properties of mimosamycin: activity against gram-negative bacteria; assay type: cell-based; conditions: at a concentration of 50 μg/ml
fungi = test: Biological properties of mimosamycin: activity against fungi; assay type: cell-based; conditions: at a concentration of 50 μg/ml
acid-fast bacteria = test: Biological properties of mimosamycin: activity against acid-fast bacteria; assay type: cell-based
[2] = system: highly streptomycin-resistant strains of human tubercle bacilli; assay type: cell-based; conditions: compared with normal strains of tubercle bacilli
Solubility = assay type: physicochemical
tubercle bacilli = test: Activity of mimosamycin against tubercle bacilli (in words); assay type: cell-based
[3] = system: Mycobacterium smegmatis ATCC607; test: Antimicrobial activity of mimosamycin (Table 4); conditions: Mycolicibacterium smegmatis, ATCC607, 48 h

For `COC1=C(C)C(=O)c2cc(=O)n(C)cc2C1=O` [Mimosamycin], the MIC [1] was 6.25 µg/mL (≈ 26.8 µM), the “activity against gram-positive bacteria” value (gram-positive bacteria) was “active against gram-positive bacteria to a certain extent” and the “activity against gram-negative bacteria” value (gram-negative bacteria) was “non-effective”. For the same compound, the activity against fungi (fungi) was “non-effective”, the “activity against acid-fast bacteria” value (acid-fast bacteria) was “active against acid-fast bacteria” and the “activity against highly streptomycin-resistant strains of human tubercle bacilli” value [2] was “effective against highly streptomycin-resistant strains of human tubercle bacilli as is against normal strains of tubercle bacilli”. For the same compound, the Solubility (Solubility; in ethyl ether, n-hexane) was “Sparingly soluble”, the Solubility (Solubility; in methanol, ethanol, chloroform, esters, acetone) was “Easily soluble” and the Solubility (Solubility; in water) was “Insoluble”. The “activity against tubercle bacilli” value (tubercle bacilli) was “specifically effective against tubercle bacilli” and the MIC [3] was 25 µg/mL (≈ 107 µM).
